For assay [1], the target named is Sigma intracellular receptor 2 (Cavia porcellus). Nature of the assay: Binding affinity for Sigma opioid receptor type 2 in guinea pig brain homogenate with 4 nM [3H]-(+)-DTG.
Assay [2] in a line: Binding affinity for Sigma opioid receptor type 1 in guinea pig brain homogenate with 0.5 nM [3H](+)-PENT.

Molecules are shown by their SMILES.

As a reminder, the Ki is a measure of affinity in units of concentration, obtained from inhibition or displacement. Lower therefore signals a stronger hold on the target.

With `O=C1NC(c2ccccc2)(c2ccccc2)C(=O)N1CCCN1CCC(c2ccccc2)CC1` [5,5-Diphenyl-3-[3-(4-phenyl-piperidin-1-yl)-propyl]-imidazolidine-2,4-dione], the Ki is 25 nM in assay [1] and 22 nM in assay [2].

Regarding `O=C1NC(c2ccccc2)(c2ccccc2)C(=O)N1CCCCCN1CCN(c2ccccc2)CC1` [5,5-Diphenyl-3-[5-(4-phenyl-piperazin-1-yl)-pentyl]-imidazolidine-2,4-dione], the Ki in assay [1] and in assay [2] was 19 nM in each case.

Regarding `O=C1NC(c2ccccc2)(c2ccccc2)C(=O)N1CCCCN1CCN(c2ccccc2)CC1` [5,5-Diphenyl-3-[4-(4-phenyl-piperazin-1-yl)-butyl]-imidazolidine-2,4-dione], the Ki was 49 nM in assay [1] and 328 nM in assay [2].

In the case of `O=C1NC(c2ccccc2)(c2ccccc2)C(=O)N1CCN1CCC(c2ccccc2)CC1` [5,5-Diphenyl-3-[2-(4-phenyl-piperidin-1-yl)-ethyl]-imidazolidine-2,4-dione], the Ki in assay [1] was determined as 43 nM; in assay [2], 17 nM.
